The values below come from patent publication US8680108B2, “Substituted fused aryl and heteroaryl derivatives as PI3K inhibitors” (Incyte Corporation, priority 2009, dated 2014).

Counter-ions that a name gives are not always drawn. A value given as a limit tells only on which side of the number the result lay.

One may read the IC50 as the concentration that gives 50% inhibition. Low values mean greater potency, high ones weaker potency.

T1 sequence (O00329 whole entry): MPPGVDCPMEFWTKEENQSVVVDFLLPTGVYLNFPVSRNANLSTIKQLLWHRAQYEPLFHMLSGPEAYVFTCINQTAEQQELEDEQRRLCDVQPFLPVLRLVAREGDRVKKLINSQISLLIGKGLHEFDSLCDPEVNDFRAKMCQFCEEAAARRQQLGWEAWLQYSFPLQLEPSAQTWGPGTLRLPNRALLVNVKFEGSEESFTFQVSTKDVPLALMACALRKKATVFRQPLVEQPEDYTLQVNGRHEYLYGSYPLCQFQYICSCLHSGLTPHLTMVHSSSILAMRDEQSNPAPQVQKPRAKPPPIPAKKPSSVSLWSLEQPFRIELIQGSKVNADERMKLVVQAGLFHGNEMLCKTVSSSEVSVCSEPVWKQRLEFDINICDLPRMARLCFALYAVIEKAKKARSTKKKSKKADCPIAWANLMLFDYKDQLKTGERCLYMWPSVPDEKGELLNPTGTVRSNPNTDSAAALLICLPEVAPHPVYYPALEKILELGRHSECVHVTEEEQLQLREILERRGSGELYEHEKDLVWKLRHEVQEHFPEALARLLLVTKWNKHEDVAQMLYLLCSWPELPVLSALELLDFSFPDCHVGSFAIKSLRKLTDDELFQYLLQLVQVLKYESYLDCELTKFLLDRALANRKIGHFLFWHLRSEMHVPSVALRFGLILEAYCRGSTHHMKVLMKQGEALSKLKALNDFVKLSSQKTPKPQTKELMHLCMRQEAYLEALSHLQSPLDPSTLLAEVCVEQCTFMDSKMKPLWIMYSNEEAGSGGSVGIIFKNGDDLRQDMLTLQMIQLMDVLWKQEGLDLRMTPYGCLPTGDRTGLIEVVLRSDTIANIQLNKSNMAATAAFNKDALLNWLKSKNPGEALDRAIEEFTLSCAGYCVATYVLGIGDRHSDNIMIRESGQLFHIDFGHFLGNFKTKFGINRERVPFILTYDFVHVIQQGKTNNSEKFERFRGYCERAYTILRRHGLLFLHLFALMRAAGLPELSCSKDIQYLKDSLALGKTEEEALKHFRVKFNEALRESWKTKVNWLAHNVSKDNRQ
T1 sequence (P27986 whole entry partner): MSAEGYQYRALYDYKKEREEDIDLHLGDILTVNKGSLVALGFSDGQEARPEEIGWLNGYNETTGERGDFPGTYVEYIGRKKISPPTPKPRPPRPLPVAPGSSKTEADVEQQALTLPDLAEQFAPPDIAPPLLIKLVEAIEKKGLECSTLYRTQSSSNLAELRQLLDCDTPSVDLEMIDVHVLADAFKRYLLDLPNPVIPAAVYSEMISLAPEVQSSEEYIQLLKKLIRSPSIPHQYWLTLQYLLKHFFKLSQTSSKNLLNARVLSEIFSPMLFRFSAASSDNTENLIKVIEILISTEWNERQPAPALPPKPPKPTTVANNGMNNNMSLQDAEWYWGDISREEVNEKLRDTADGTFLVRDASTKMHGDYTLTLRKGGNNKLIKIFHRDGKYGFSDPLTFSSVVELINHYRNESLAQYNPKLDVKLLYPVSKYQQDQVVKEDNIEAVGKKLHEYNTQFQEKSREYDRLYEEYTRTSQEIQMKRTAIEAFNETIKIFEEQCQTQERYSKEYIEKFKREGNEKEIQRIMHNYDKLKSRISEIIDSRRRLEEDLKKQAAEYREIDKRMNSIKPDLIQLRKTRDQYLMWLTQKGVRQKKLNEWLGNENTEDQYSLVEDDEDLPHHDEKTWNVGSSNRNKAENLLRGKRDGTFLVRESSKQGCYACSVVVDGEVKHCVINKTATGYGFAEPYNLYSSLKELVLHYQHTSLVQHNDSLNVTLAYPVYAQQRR

One assay addresses T1, PI3Kδ (p110δ/p85α) (Homo sapiens, UniProt O00329).
T1 construct: purchased Millipore (Bedford, Mass.)
Description: PI3Kδ scintillation proximity assay. It counts as biochemical.
Conditions: not given
An excerpt: Materials: [γ-^33P]ATP (10 mCi/mL) was purchased from Perkin-Elmer (Waltham, Mass.). Lipid kinase substrate, D-myo-Phosphatidylinositol 4,5-bisphosphate (PtdIns(4,5)P2)D (+)-sn-1,2-di-O-octanoylglyceryl, 3-O-phospho linked (PIP2), CAS 204858-53-7, was purchased from Echelon Biosciences (Salt Lake City, Utah). PI3Kδ (p110δ/p85α) was purchased from Millipore (Bedford, Mass.). ATP, MgCl2, DTT, EDTA, MOPS and CHAPS were purchased from Sigma-Aldrich (St. Louis, Mo.). Wheat Germ Agglutinin (WGA) YSi SPA Scintillation Beads was purchased from GE healthcare life sciences (Piscataway, N.J.).
Assay: The kinase reaction was conducted in polystyrene 384-well matrix white plate from Thermo Fisher Scientific in a final volume of 25 μL. Inhibitors were first diluted serially in DMSO and added to the plate wells before the addition of other reaction components. The final concentration of DMSO in the assay was 0.5%. The PI3K assays were carried out at room temperature in 20 mM MOPS, pH 6.7, 10 mM MgCl2, 5 mM DTT and CHAPS 0.03%. Reactions were initiated by the addition of ATP, the final reaction mixture consisted of 20 μM PIP2, 20 μM ATP, 0.2 μCi [γ-^33P] ATP, 4 nM PI3Kδ. Reactions were incubated for 210 minutes and terminated by the addition of 40 μL SPA beads suspended in quench buffer: 150 mM potassium phosphate pH 8.0, 20% glycerol. 25 mM EDTA, 400 μM ATP. The final concentration of SPA beads is 1.0 mg/mL. After the plate sealing, plates were shaken overnight at room temperature and centrifuged at 1800 rpm for 10 minutes, the radioactivity of the product was determined by scintillation counting on Topcount (Perkin-Elmer). IC50 determination was performed by fitting the curve of percent control activity versus the log of the inhibitor concentration using the GraphPad Prism® 3.0 software.
On the technique in general: In a scintillation proximity assay essentially only radioactivity close to the scintillant gives light.
On to `CC(Nc1nc(N)nc2[nH]cnc12)c1ccc2ccccc2c1-c1cncc(F)c1` (stereo not drawn) [Example 3, N(6)-{1-[1-(5-fluoropyridin-3-yl)-2-naphthyl]ethyl}-9H-purine-2,6-diamine bis-trifluoroacetate], for which the IC50 is under 0.05 µM. On the same count and under the same terms, to `CC(Nc1ncnc2[nH]cnc12)c1cc(Cl)c2ccccc2c1-c1cccc(F)c1` (stereo not drawn) [Example 46, N-{1-[4-Chloro-1-(3-fluorophenyl)-2-naphthyl]ethyl}-9H-purin-6-amine] belongs 0.1 to 0.25 µM. In turn, `CC(Nc1ncnc2[nH]cnc12)c1ccc2cccnc2c1-c1cncc(F)c1` (stereo not drawn) [Example 9, N-{1-[8-(5-fluoropyridin-3-yl)quinolin-7-yl]ethyl}-9H-purin-6-amine tris-trifluoroacetate] yielded an IC50 of 0.5 to 1 µM. For the molecule `CC(Nc1ncnc2[nH]cnc12)c1cc(Cl)c2cccnc2c1N1CCC(F)CC1` (stereo not drawn) [Example 62, N-{1-[5-Chloro-8-(4-fluoropiperidin-1-yl)quinolin-7-yl]ethyl}-9H-purin-6-amine bis(trifluoroacetate)], the IC50 lay within 0.1 to 0.25 µM. `CC(Nc1ncnc2[nH]cnc12)c1cc(Cl)c2cccnc2c1N1CCN(C(=O)c2ccn(C)n2)CC1` (stereo not drawn) [Example 101, N-[1-(5-Chloro-8-{4-[(1-methyl-1H-pyrazol-3-yl)carbonyl]piperazin-1-yl}quinolin-7-yl)ethyl]-9H-purin-6-amine bis(trifluoroacetate)] had an IC50 of under 0.05 µM. The same measure, in the same setting: the value for `Cc1cc(C(=O)N2CCN(c3c(C(C)Nc4ncnc5[nH]cnc45)cc(Cl)c4cccnc34)CC2)no1` (stereo not drawn) [Example 99, N-[1-(5-Chloro-8-{4-[(5-methylisoxazol-3-yl)carbonyl]piperazin-1-yl}quinolin-7-yl)ethyl]-9H-purin-6-amine bis(trifluoroacetate)] was under 0.05 µM; that for `CC(Nc1ncnc2[nH]cnc12)c1cc(Cl)c2ccnnc2c1-c1cc(F)cc(F)c1` (single isomer, unassigned) [Example 23, N-{1-[5-Chloro-8-(3,5-difluorophenyl)cinnolin-7-yl]ethyl}-9H-purin-6-amine] was under 0.05 µM; that for `Fc1cccc(-c2c(CNc3ncnc4[nH]cnc34)cc(Cl)c3ccnnc23)c1` [Example 31, N-{[5-Chloro-8-(3-fluorophenyl)cinnolin-7-yl]methyl}-9H-purin-6-amine trifluoroacetate] was 0.5 to 1 µM. The molecule `CC(Nc1ncnc2[nH]cnc12)c1cc(Cl)c2cccnc2c1N1CCN(C(=O)C2CCC2)CC1` (stereo not drawn) [Example 86, N-(1-{5-Chloro-8-[4-(cyclobutylcarbonyl)piperazin-1-yl]quinolin-7-yl}ethyl)-9H-purin-6-amine bis(trifluoroacetate)] came in with an IC50 of under 0.05 µM.

`CC(Nc1ncnc2[nH]cnc12)c1cc(Cl)c2ccnnc2c1-c1cncc(F)c1` (single isomer, unassigned) [Example 34, N-{1-[5-chloro-8-(5-fluoropyridin-3-yl)cinnolin-7-yl]ethyl}-9H-purin-6-amine trifluoroacetate] had an IC50 of 0.05 to 0.1 µM. On the same count and under the same terms, the value for `CC(Nc1ncnc2[nH]cnc12)c1cc(Cl)c2cccnc2c1N1CCN(C(=O)C2CC2)CC1` (stereo not drawn) [Example 84, N-(1-{5-Chloro-8-[4-(cyclopropylcarbonyl)piperazin-1-yl]quinolin-7-yl}ethyl)-9H-purin-6-amine bis(trifluoroacetate)] was under 0.05 µM; that for `CC(Nc1ncnc2[nH]cnc12)c1cc(Cl)c2ccnnc2c1-c1ccccc1F` (single isomer, unassigned) [Example 25, N-{1-[5-Chloro-8-(2-fluorophenyl)cinnolin-7-yl]ethyl}-9H-purin-6-amine] was over 1 µM; that for `CC(Nc1ncnc2[nH]cnc12)c1cc(Cl)c2cn[nH]c2c1-c1cccc(F)c1` (stereo not drawn) [Example 105, N-{1-[4-Chloro-7-(3-fluorophenyl)-1H-indazol-6-yl]ethyl}-9H-purin-6-amine] was under 0.05 µM. In turn, `CC(Nc1ncnc2[nH]cnc12)c1cc(F)c2cccnc2c1N1CCN(C(=O)c2cnn(C)c2)CC1` (stereo not drawn) [Example 103, N-[1-(5-Fluoro-8-{4-[(1-methyl-1H-pyrazol-4-yl)carbonyl]piperazin-1-yl}quinolin-7-yl)ethyl]-9H-purin-6-amine bis(trifluoroacetate)] had an IC50 of under 0.05 µM.

Take `CC(Nc1ncnc2[nH]cnc12)c1cc(Cl)c2ccnnc2c1-c1ccccc1F` (single isomer, unassigned) [Example 26, N-{1-[5-Chloro-8-(2-fluorophenyl)cinnolin-7-yl]ethyl}-9H-purin-6-amine]: the IC50 fell in the range of 0.25 to 0.5 µM. `CCC(Nc1ncnc2[nH]cnc12)c1cc(Cl)c2ccnnc2c1-c1cccc(F)c1` (single isomer, unassigned) [Example 32, N-{1-[5-chloro-8-(3-fluorophenyl)cinnolin-7-yl]propyl}-9H-purin-6-amine] yielded a concentration for half-maximal inhibition (IC50) of over 1 µM. Molecule `COC(=O)N1CCN(c2c(C(C)Nc3ncnc4[nH]cnc34)cc(Cl)c3cccnc23)CC1` (stereo not drawn) [Example 85, Methyl 4-{5-Chloro-7-[1-(9H-purin-6-ylamino)ethyl]quinolin-8-yl}piperazine-1-carboxylatebis(trifluoroacetate)] registered an IC50 of under 0.05 µM. The molecule `COC1CCN(c2c(C(C)Nc3ncnc4[nH]cnc34)cc(Cl)c3cccnc23)CC1` (stereo not drawn) [Example 71, N-{1-[5-Chloro-8-(4-methoxypiperidin-1-yl)quinolin-7-yl]ethyl}-9H-purin-6-amine bis(trifluoroacetate)] gave an IC50 of 0.05 to 0.1 µM. Still for that read-out and setting: the value for `CC(=O)N[C@H]1CCN(c2c(C(C)Nc3ncnc4[nH]cnc34)cc(Cl)c3cccnc23)C1` (stereo partly drawn) [Example 13, N-((3S)-1-{5-chloro-7-[1-(9H-purin-6-ylamino)ethyl]quinolin-8-yl}pyrrolidin-3-yl}acetamide bis-trifluoroacetate] was under 0.05 µM; that for `COc1ccc(-c2c(C(C)Nc3ncnc4[nH]cnc34)cc(Cl)c3ccnnc23)cc1F` (stereo not drawn) [Example 41, N-{1-[5-Chloro-8-(3-fluoro-4-methoxyphenyl)cinnolin-7-yl]ethyl}-9H-purin-6-amine] was 0.5 to 1 µM. The molecule `CC(Nc1ncnc2[nH]cnc12)c1cc(Cl)c2cccnc2c1N1CCC(CO)CC1` (stereo not drawn) [Example 64, (1-{5-Chloro-7-[1-(9H-purin-6-ylamino)ethyl]quinolin-8-yl}piperidin-4-yl)methanol tris(trifluoroacetate)] yielded an IC50 of 0.1 to 0.25 µM.

As for `CC(Nc1ncnc2[nH]cnc12)c1cc(Cl)c2cccnc2c1-c1cccc(F)c1` (stereo not drawn) [Example 15, N-{1-[5-chloro-8-(3-fluorophenyl)quinolin-7-yl]ethyl}-9H-purin-6-amine bis-trifluoroacetate], the IC50 is under 0.05 µM. As for `COCCN1CCN(c2c(C(C)Nc3ncnc4[nH]cnc34)cc(Cl)c3cccnc23)CC1` (stereo not drawn) [Example 11, N-(1-{5-chloro-8-[4-(2-methoxyethyl)piperazin-1-yl]quinolin-7-yl]ethyl)-9H-purin-6-amine tris-trifluoroacetate], the IC50 is under 0.05 µM.

For the molecule `CC(Nc1ncnc2[nH]cnc12)c1nc(C#N)c2ccccc2c1-c1cccc(F)c1` (stereo not drawn) [Example 54, 4-(3-fluorophenyl)-3-[1-(9H-purin-6-ylamino)ethyl]isoquinoline-1-carbonitrile], the IC50 was 0.05 to 0.1 µM. `CC(Nc1ncnc2[nH]cnc12)c1cc(Cl)c2cccnc2c1N1CCC(O)CC1` (stereo not drawn) [Example 43, 1-{5-Chloro-7-[1-(9H-purin-6-ylamino)ethyl]quinolin-8-yl}piperidin-4-ol]: the IC50 is under 0.05 µM.

Take `CC(Nc1ncnc2[nH]cnc12)c1cc(Cl)c2ccncc2c1-c1cccc(F)c1` (stereo not drawn) [Example 56, N-{1-[5-Chloro-8-(3-fluorophenyl)isoquinolin-7-yl]ethyl}-9H-purin-6-amine]: the IC50 is under 0.05 µM. Molecule `CC(Nc1ncnc2[nH]cnc12)c1cc(Cl)c2cccnc2c1N1CCN(CC(=O)N(C)C)CC1` (stereo not drawn) [Example 90, 2-(4-{5-Chloro-7-[1-(9H-purin-6-ylamino)ethyl]quinolin-8-yl}piperazin-1-yl)-N,N-dimethylacetamide tris(trifluoroacetate)] registered an IC50 of under 0.05 µM.

Staying with this assay, now noted: separated isomer, 1st peak.
Consider `CC(Nc1ncnc2[nH]cnc12)c1cc(Cl)c2cccnc2c1N1CCC(c2ccccc2)C1` (stereo not drawn) [Example 76, N-{1-[5-Chloro-8-(3-phenylpyrrolidin-1-yl)quinolin-7-yl]ethyl}-9H-purin-6-amine tris(trifluoroacetate)], for which the IC50 lay within 0.25 to 0.5 µM.

`CCC(=O)N[C@H]1CCN(c2c(C(C)Nc3ncnc4[nH]cnc34)cc(Cl)c3cccnc23)C1` (stereo partly drawn) [Example 77, N-((3S)-1-{5-Chloro-7-[1-(9H-purin-6-ylamino)ethyl]quinolin-8-yl}pyrrolidin-3-yl)propanamide tris(trifluoroacetate)] came in with an IC50 of over 1 µM. The molecule `CC(Nc1ncnc2[nH]cnc12)c1cc(Cl)c2cccnc2c1-c1ccccc1F` (stereo not drawn) [Example 10, N-{1-[5-chloro-8-(2-fluorophenyl)quinolin-7-yl]ethyl}-9H-purin-6-amine bis-trifluoroacetate] had an IC50 of 0.1 to 0.25 µM.

Still in this assay, the particulars now being: separated isomer, 2nd peak.
Turning to `CC(Nc1ncnc2[nH]cnc12)c1cc(Cl)c2cccnc2c1N1CCC(c2ccccc2)C1` (stereo not drawn) [Example 76, N-{1-[5-Chloro-8-(3-phenylpyrrolidin-1-yl)quinolin-7-yl]ethyl}-9H-purin-6-amine tris(trifluoroacetate)], the IC50 fell in the range of 0.25 to 0.5 µM. On the same count and under the same terms, to `CCC(=O)N[C@H]1CCN(c2c(C(C)Nc3ncnc4[nH]cnc34)cc(Cl)c3cccnc23)C1` (stereo partly drawn) [Example 77, N-((3S)-1-{5-Chloro-7-[1-(9H-purin-6-ylamino)ethyl]quinolin-8-yl}pyrrolidin-3-yl)propanamide tris(trifluoroacetate)] belongs under 0.05 µM. In turn, `CC(Nc1ncnc2[nH]cnc12)c1cc(Cl)c2cccnc2c1-c1ccccc1F` (stereo not drawn) [Example 10, N-{1-[5-chloro-8-(2-fluorophenyl)quinolin-7-yl]ethyl}-9H-purin-6-amine bis-trifluoroacetate] displayed an IC50 of under 0.05 µM.
